According to patent US9969972B2, “Pluripotent stem cell culture on micro-carriers” (Janssen Biotech, Inc., priority 2008, dated 2018):

Tests used:
H9 cells [1] = experiment: Proliferation of H9 cells on micro-carriers in defined medium; format: cell-based, human; details: H9 p64, StemPro, 2.5 μM, on Cytodex 3 micro-carriers
Description: To manufacture a therapeutic product, it is desirable to remove any animal components from the human embryonic stem cell culture medium. Currently human embryonic stem cells are maintained on MATRIGEL™ (BD Biosciences, CA) in medium conditioned using mouse embryonic fibroblasts (MEF-CM). Both MATRIGEL™ (BD Biosciences, CA) and MEF-CM are derived from mouse cells. Additionally, MEF-CM is an expensive and time-consuming medium to generate. To determine if human embryonic stem cells can be sustained on micro-carriers with defined medium, H9 cells were seeded onto Cytodex 3® (GE Healthcare Life Sciences, NJ) and HILLEX®II (Solohill, MI) micro-carriers in the presence of Rho kinase inhibitors, 10 μM Y27632 (Sigma-Aldrich, MO) or 2.5 μM Glycyl-H 1152 dihydrochloride (Tocris, MO) in Stem Pro (Invitrogen, CA), mTESR (StemCell Technologies, Vancouver, Canada) or MEF-CM. The cells were placed in a 12 well dish on a rocking platform at 37° C. The cells were counted at days 3, 5 and 7. […] Therefore the micro-carrier type, Rho kinase inhibitor, and medium all play a role in determining the ability of human embryonic stem cells to proliferate.

[2] = tested on: H1 human embryonic stem cells; experiment: Single cell passage of H1 cells from fibroblast feeders to PRIMARIA; format: cell-based; details: feeder free/matrix free culture on PRIMARIA, greater than 8 passages
Description: Method: Cells were routinely passaged by aspirating media, washing with PBS, and then treating the cells with a dissociation enzyme (collagenase, Accutase™, or TrypLE). Collagenase was used at 1 mg/ml concentration; Accutase™ or TrypLE were used at 1× stock concentration. All enzymes were used after reaching room temperature. A solution of 2% BSA in DMEM/F12 was added to each well and cells were uniformly suspended in the solution after treating the cells with enzyme. Cells were then centrifuged for 5 minutes at 200 g, the cell pellet and additional 2% BSA in DMEM/F12 solution was added to resuspend cells and the cell suspension was distributed to three 50 ml sterile conical tubes and centrifuged for 5 min at 200 g.
Using a sequential method, the fibroblast feeders were removed by high density passaging the cluster/colony style human embryonic stem cells to a Primaria surface by treating the MEF based culture with either Accutase™, TrypLE™, or collagenase. […] Cell number for cells lifted with TrypLE™ or Accutase™ was determined by counting trypan blue stained cells with a hemocytometer. […]
2nd passage: Cells were passaged at a ratio of 1 to 4 using a 10 minutes exposure to TrypLE™ or Accutase™. A shorter enzyme exposure time, which was determined empirically by treating the cells and monitoring for detachment, was also introduced. […]

H9 cells [3] = experiment: Rho kinase inhibitor concentration for attachment and growth of H9 cells on micro-carriers; format: cell-based, human; details: H9 passage 44, MEF-CM, rocking platform
Description: A starting aliquot of 13,333 cells/cm^2 H9 cells at passage 44 was seeded onto 15 cm^2 of micro-carriers in a single well of a 12 well non-tissue culture treated plate. The cells were placed at 37° C. for at least 60 minutes before placing them onto a rocking platform at 37° C. Prior to adding the cells, HILLEX®II (Solohill, MI) and Cytodex 3® (GE Healthcare Life Sciences, NJ) micro-carriers were prepared as directed by the manufacturer. Cells were grown in MEF-CM plus a range of Rho kinase inhibitor concentrations, Y27632 at 10, 5, 2.5 or 1 μM, or (S)-(+)-4-Glycyl-2-methyl-1-[(4-methyl-5-isoquinolinyl)sulfonyl]-hexahydro-1H-1,4-diazepine dihydrochloride (Glycyl-H 1152 dihydrochloride (H), Tocris, MO) at 5, 2.5, 1 or 0.5 μM). The medium was changed daily and one well of cells was counted at 4 and 7 days after seeding for yield and viability (FIGS. 7, A and B).

H1 cells [4] = experiment: Dose titration of Rho kinase inhibitor, H1 cells on micro-carriers; format: cell-based, human
Description: Next a dose titration of the Rho kinase inhibitor was attempted since it has been characterized as a […]. H1 cells at passage 48 were dissociated from MATRIGEL™ (BD Biosciences, CA) coated plates with TrypLE™ Express. The cells were then seeded onto 15 cm^2 of micro-carriers into a single well of a 12 well non-tissue culture treated plate. HILLEX®II (Solohill, MI), Cytodex 1®, or Cytodex 3® (GE Healthcare Life Sciences, NJ) micro-carriers were tested with decreasing amounts of Rho kinase inhibitor: 10 μM Y27632 (Sigma-Aldrich, MO) was used on day one followed by […] on day two (Y10/5 μM); 2.5 μM Glycyl-H 1152 dihydrochloride (Tocris, MO) was used on day one followed by 0.5 μM on day two (H2.5/0.5 μM); 1 μM Glycyl-H 1152 dihydrochloride (Tocris, MO) was used on day one followed by 0.5 μM Glycyl-H 1152 dihydrochloride (Tocris, MO) on day two (H1/0.5 μM); or continuous addition of 0.25 μM Glycyl-H 1152 dihydrochloride (Tocris, MO) was applied daily in MEF-CM (H0.25 μM). H1 cells and micro-carriers were agitated every 45 minutes for 3 hours at 37° C. before being placed on a rocking platform at 37° C. Cells were counted after 3, 5 and 7 days on the rocking platform at 37° C. (FIG. 8). Overall the best concentration of Glycyl-H 1152 dihydrochloride (Tocris, MO) was 1-2.5 μM on day one and 0.5 μM on day 2 followed by withdrawal of the compound. […] Using a minimal amount of Rho-kinase inhibitor also helps reduce costs for the process and maybe beneficial to cell proliferation.

H1 cells [5] = experiment: Proliferation of H1 cells on micro-carriers in defined medium; format: cell-based, human; details: H1 passage 38, MEF-CM
Description: H1 human embryonic stem cells at passage 38 were seeded onto either Cytodex 3® or HILLEX®II micro-carriers in the presence of Rho kinase inhibitors, 10 μM Y27632 (Sigma-Aldrich, MO) or 2.5 μM Glycyl-H 1152 dihydrochloride in mTESR (StemCell Technologies, Vancouver, Canada) or MEF-CM in a 12 well dish. The cells were placed on a rocking platform at 37° C. The cells were counted at days 3, 5 and 7.
Cells were incubated at 37° C. in a 10 cm^2 dish for 5 hours with agitation by hand every 45 minutes. mTESR (StemCell Technologies, Vancouver, Canada) plus 10 μM Y27632 (Sigma-Aldrich, MO) was changed every other day. This was conducted in parallel with cells grown in MEF-CM (Example 5).

H1 and H9 cells = experiment: Attachment of H1 and H9 cells to micro-carrier beads in MEF-CM with 10 μM Y27632; format: cell-based, human; details: 10 μM in MEF-CM, static culture
Description: To improve the attachment and proliferation of human embryonic stem cells on micro-carriers, a small molecule inhibitor of Rho-associated coiled coil forming protein serine/threonine kinase, Rho kinase inhibitor was added to the media. Specifically, Y27632, Y, (Sigma-Aldrich, MO) was used. MEF-CM plus 10 μM Y27632 (Sigma-Aldrich, MO) was changed daily. […] By analysis of images, human embryonic stem cells grown on HILLEX®II micro-carriers (Solohill, MI) appeared to attach and proliferate better than human embryonic stem cells on other micro-carriers tested. Additionally, H9 cells attached better to HILLEX®II (Solohill, MI) in the presence of the Rho kinase inhibitor (FIG. 1A compared to 1B).
The H1 human embryonic cell line was also tested for growth on micro-carriers for large-scale expansion. Because a Rho kinase inhibitor, Y27632 (Sigma-Aldrich, MO), was necessary for attachment of the H9 cell line, it was also assumed to be necessary for H1 cells. Cytodex 1®, Cytodex 3® (GE Healthcare Life Sciences, NJ), HILLEX®II, Plastic, ProNectinF, Plastic Plus micro-carriers (SoloHill Ann Arbor, MI) were prepared according to the manufacturer's instructions. […] After 3, 5 and 7 days, one well was imaged, harvested, and counted. […] Cells were detached according to Example 4 and counted for yield.

Row | SMILES | proliferation (H9 cells [1]) | pluripotency and differentiation capacity of culture [2] | concentration with the best attachment (day 4) (H9 cells [3]) [µM] | best concentration on day one (H1 cells [4]; H1 passage 48, MEF-CM, HILLEX II, Cytodex 1 or Cytodex 3) [µM] | best concentration on day 2 (H1 cells [4]; H1 passage 48, followed by withdrawal of the compound) [µM] | cell yield (H1 cells [4]; cells maintained in 0.25 μM continuously) | growth (H1 cells [5]; 2.5 μM, on Cytodex 3) | effect of removal of the inhibitor on attachment (H1 cells [4]; H1 cells on micro-carriers) | expansion (H1 cells [5]; both micro-carrier types, 10 μM) | attachment of H9 cells to micro-carriers (H1 and H9 cells)
1 | Cc1cncc2cccc(S(=O)(=O)N3CCCN(C(=O)CN)C[C@@H]3C)c12.Cl.Cl [Glycyl-H 1152 dihydrochloride, (S)-(+)-4-Glycyl-2-methyl-1-[(4-methyl-5-isoquinolinyl)sulfonyl]-hexahydro-1H-1,4-diazepine dihydrochloride] | did not proliferate well | retains pluripotency and the ability to differentiate to definitive endoderm | 5 | 1 to 2.5 | 0.5 | poor cell yield | poor growth | – | – | –
2 | C[C@@H](N)[C@H]1CC[C@H](C(=O)Nc2ccncc2)CC1 [Y27632] | – | – | – | – | – | – | – | did not cause the H1 cells to dissociate | typical expansion characteristics | attached and formed aggregates with all micro-carriers tested
